pIC50: −log10 of the molar value.
Tests used:
AMPA receptor = AMPA receptor affinity (receptor binding, as described by T. Honore et al.); conditions: Neuroscience Letters 54, 27-32 (1985)
Description: In Vitro activity (receptor affinity):
The compounds of the present invention has been tested for their affinity for the AMPA receptor as described by T. Honore et al., Neuroscience Letters 54, 27-32 (1985). IC50 values appear from the following Table 1.

[1] = tested on: cultured mouse cerebral cortex neurons; assay: Inhibition of stimulated 3H-GABA release from cultured cerebral cortex neurons; format: cell-based; conditions: Cerebral cortex neuron, 37° C., pH 7.4, stimulated 30 sec every 4 min
Description: The compounds of the invention have also been tested for their ability to inhibit GABA release from cultured mouse cerebral cortex neurons using the following test:
Background: Neurons which express receptors for excitatory amino acids can be depolarized by such compounds and this depolarization will ultimately lead to a release of transmitter substance from the neurons. Cultured neurons obtained from 15-day-old mouse embryo cortex are mainly GABAergic and express all types of excitatory amino acid receptors. This means that they can be stimulated by high potassium or by the excitatory amino acids, NMDA, AMPA and kainate to release their neurotransmitter GABA.
^3 H-GABA may be used to label the GABA transmitter pool in the neurons and the release of ^3 H-GABA from the neurons may be used as a simple functional model for studies of the effects of excitatory amino acids and their antagonists.
Method: Cerebral cortices of 16-day-old mouse embryos are chopped in 0.4×0.4 mm cubes. The tissue is dissociated by mild trypsinization (0.1% (wt/vol) trypsin, 37° C., 15 min) and subsequently inoculated into poly-L-lysine-coated 3-cm Petri dishes containing a slightly modified DMEM (24.5 mM KCI, 30 mM glucose) supplemented with p-aminobenzoate (7 μM), insulin (100 mU/L) and 10% (vol/vol) horse serum. Cells are maintained in culture for 5-7 days with the addition of the antimitotic agent cytosine arbinoside (40 μM) from day 2 in vitro to prevent glial profileration. For further details and references, see Drejer et al. Exp. Brain Res. 47, 259 (1982).
Release experiments are performed using the model described by Drejer et al. Life Sci. 38, 2077 (1986). Cerebral cortex neurons cultured in Petri dishes (30 mm) are added 100 μM γ-vinyl-GABA one hour before the experiment in order to inhibit degradation of GABA in the neurons. 30 min before the experiment 5 μCi ^3 H-GABA is added to each culture and after this preloading period the cell monolayer at the bottom of the dish is covered with a piece of nylon mesh to protect the cells against mechanical damage and to facilitate dispersion of medium over the cell layer. The preloading medium is removed and the Petri dishes are placed in a superfusion system consisting of a peristaltic pump continously delivering thermostated 37° C. superfusion medium HEPES buffered saline (HBS): 10 mM HEPES, 135 mM NaCl, 5 mM KCl, 0.6 mM MgSO4, 1.0 mM CaCl2 and 6 mM D-glucose; pH 7.4) from a reservoir to the top of the slightly tilted Petri dish. The medium is continously collected from the lower part of the dish and delivered to a fraction collector. Initially, the cells are superfused with HBS for 15 min (flow rate 2 ml/min). Then the cells are stimulated for 30 sec every 4 min by changing the superfusion medium from HBS to a corresponding medium containing […].
Test subtances are dissolved in 50% DMSO, 48% ethanol. The final DMSO and ethanol concentration in the assay must not exceed 0.1%.
The stimulated release of ^3 H-GABA (cpm) are corrected for the mean basal release(cpm) before and after stimulation.
The stimulated release in the presence of antagonists are expressed relative to the stimulated release and the IC50 value for the antagonist is calculated (the concentration (μM) of the test substance which inhibit 50% of the stimulated ^3 H-GABA release).

Gerbils = assay: Transient Forebrain Ischemia Model (2-VO Gerbils), global ischaemia, hippocampal damage; format: in vivo, gerbil; conditions: 30 mg/kg bolus i.v. followed by one hour infusion of 30 mg/kg (total 60 mg/kg) after 4 min occlusion; read four days later; Mann-Whitney Rank Sum Test
Procedure: The compound, 8-methyl-5-(4-(N,N-dimethylsulphamoyl)phenyl)-6,7,8,9-tetrahydro-1H-pyrrolo[3,2-h]isoquinoline-2,3-dione-3-O-(N-ethylcarbamoyl)oxime has also been tested in the following animal moder of global ischaemia:
Transient Forebrain Ischemia Model (2-VO Gerbils)
Gerbils were anaesthetized with halothane, right and left carotid arteries located and occluded for 4 minutes. Animals were kept warm before and after the operation using heating lamps. During the operation the gerbils were placed on heating plates, body temperature controlled and maintained at 37±0.5° C. Postocclusion, the gerbils were divided in two groups. One group received 30 mg/kg test compound as a bolus injection i.v. followed by a one hour infusion of 30 mg/kg test compound (total dose was 60 mg/kg). The control group received 0.9% NaCl in the same infusion volume as the treated group. Four days later, the animals were sacrificed, brains removed and cooled to -70° C. Thereafter, the brains were sectioned in […] thick sections of which 5-7 with hippocampal tissue were selected and stained with hematoxylin eosine (HE).
Based upon the degree of hippocampal damage, each hippocampus was categorised into one of four groups (Group 1: no damage in the CA1-layer; Group 2: the CA1-layer partly damaged; Group 3: the CA1-layer completely damaged; and Group 4: damage in more than just the CA1-layer). […]

pIC50 (AMPA receptor)	pIC50 [1]	SMILES	neuroprotective effect in the gerbil 2-VO model (ischemic score, hippocampal damage) (Gerbils)
6.82	5.54	CC(=O)ON=C1C(=O)Nc2c1cc(-c1ccccc1)c1c2CN(C)CC1 [8-methyl-5-phenyl-6,7,8,9-tetrahydro-1H-pyrrolo[3,2-h]isoquinoline-2,3-dione-3-O-acetyloxime]	–
6.46	5.85	CCNC(=O)ON=C1C(=O)Nc2c1cc(-c1ccccc1)c1c2CN(C)CC1 [8-methyl-5-phenyl-6,7,8,9-tetrahydro-1H-pyrrolo[3,2-h]isoquinoline-2,3-dione-3-O-(N-ethylcarbamoyl)oxime]	–

The next lines start with the molecule.

SMILES	pIC50 (AMPA receptor)	pIC50 [1]	neuroprotective effect in the gerbil 2-VO model (ischemic score, hippocampal damage) (Gerbils)
CCNC(=O)ON=C1C(=O)Nc2c1cc(-c1ccc(S(=O)(=O)N(C)C)cc1)c1c2CN(C)CC1 [8-methyl-5-(4-(N,N-dimethylsulphamoyl)phenyl)-6,7,8,9-tetrahydro-1H-pyrrolo[3,2-h]isoquinoline-2,3-dione-3-O-(N-ethylcarbamoyl)oxime]	7.42	6.72	significant neuroprotective effect
CCN1Cc2c(-c3ccccc3)cc3c(c2C1)NC(=O)C3=NOC(C)=O [7-ethyl-5-phenyl-1,6,7,8-tetrahydrobenzo[2,1-b:3,4-c]dipyrrole-2,3-dione 3-O-acetyloxime]	5.77	5.57	–
CN1CCc2c(-c3ccc(S(=O)(=O)N(C)C)cc3)cc3c(c2C1)NC(=O)C3=NOC(=O)NC1CCCCC1 [8-methyl-5-(4-(N,N-dimethylsulphamoyl)phenyl)-6,7,8,9-tetrahydro-1H-pyrrolo[3,2-h]isoquinoline-2,3-dione-3-O-(N-cyclohexylcarbamoyl)oxime]	7.85	–	–
CN1CCc2c(-c3ccccc3)cc3c(c2C1)NC(=O)C3=NOC(=O)C(C)(C)C [8-methyl-5-phenyl-6,7,8,9-tetrahydro-1H-pyrrolo[3,2-h]isoquinoline-2,3-dione-3-O-pivaloyloxime]	6.72	< 5.52	–

Reference: US5917053A, “Indole-2,3-dione-3-oxime derivatives, their preparation and use” (Neurosearch A/S, priority 1994, dated 1999)
